# Experimental data: patent US11524096B2, “Wetting agent formulation” (TELEFLEX LIFE SCIENCES PTE. LTD., priority 2016, dated 2022)
# Assays:
# [1] = Relative dissolution of propyl gallate depending on sequence of mixing steps; type: physicochemical
# Source text: In the case where glycerol is employed, it may be necessary to add some heat to the solution in order to achieve full dissolution of the propyl gallate. Further, the sequence of the mixing steps and its effect on the relative dissolution of propyl gallate when all component concentrations and temperature are kept constant, is as follows: • Addition of propylene glycol to propyl gallate, then addition of saline or distilled water: fast reaction (high rate of dissolution of propyl gallate); • Addition of saline/distilled water to propyl gallate, then addition of propylene glycol: slow reaction (low rate of dissolution of propyl gallate); • Addition of propylene glycol to saline/distilled water, then addition of propyl gallate: fast reaction (high rate of dissolution of propyl gallate); • Employing glycerol instead of propylene glycol: slow reaction (low rate of dissolution of propyl gallate).
# [2] = without propylene glycol; cited from earlier work
structure (smiles),measurement,setting,value
"CCCOC(=O)c1cc(O)c(O)c(O)c1 [PG, propyl 3,4,5-trihydroxybenzoate]",rate of dissolution of propyl gallate,"[1]; Addition of propylene glycol to propyl gallate, then addition of saline or distilled water, concentrations and temperature constant",fast reaction
same,rate of dissolution of propyl gallate,"[1]; Addition of propylene glycol to saline/distilled water, then addition of propyl gallate",fast reaction
same,rate of dissolution of propyl gallate,"[1]; Addition of saline/distilled water to propyl gallate, then addition of propylene glycol",slow reaction
same,rate of dissolution of propyl gallate,[1]; Employing glycerol instead of propylene glycol,slow reaction
same,solubility in water (in words),[2],only slightly soluble
